The source of these data is patent US11124495B2, “Tetrahydroisoquinolines and terahydronaphthyridines for the treatment of hepatitis B virus infection” (Hoffmann-La Roche Inc., priority 2016, dated 2021).

For one experiment, the system named is HBsAg. Nature of the experiment: HBsAg assay (CLIA on supernatant of HepG2.2.15 cells). The experiment is classed as cell-based, HBV. The following applies: Hepatitis B virus, HepG2.2.15, read-out: IC50 in HBsAg assay, HepG2.2.15 cells; HBsAg secretion reduced by 50% compared to the no drug control. Here is the method:
(§1) HepG2.2.15 cells (Acs et al. Proc Natl Acad Sci USA, 84, (1987), 4641-4), a constitutively HBV-expressing cell line were cultured in DMEM+Glutamax-I medium (Invitrogen, Carlsbad, Calif., USA), supplemented with 10% fetal bovine serum (Invitrogen) and G418 (Invitrogen) at a final concentration of 200 mg/L and maintained in 5% CO2 at 37° C.
HepG2.2.15 cells were seeded in duplicate into white, 96-well plates at 1.5×10^4 cells/well. The cells were treated with a three-fold serial dilution series of the compounds in DMSO. The final DMSO concentration in all wells was 1% and DMSO was used as no drug control.
The HBsAg chemiluminescence immunoassay (CLIA) kit (Autobio Diagnostics Co., Zhengzhou, China, Catalog number: CL0310-2) was used to measure the levels of secreted HBV antigens semi-quantitatively. For the detection 50 μL/well culture supernatant was used and HBsAg was quantified using HBsAg chemiluminescence immunoassay (CLIA) kit (Autobio Diagnostics Co., Zhengzhou, China, Catalog number: CL0310-2), 50 μL of the supernatant was transferred to the CLIA assay plate and 50 μL of enzyme conjugate reagent was added into each well. The plates were sealed and gently agitated for 1 hour at room temperature. The supernatant-enzyme-mixture was discarded and wells were washed 6 times with 300 μL of PBS. The residual liquid was removed by plating the CLIA plate right side down on absorbent tissue paper. 25 μL of substrates A and B were added to each well. Luminance was measured using a luminometer (Mithras LB 940 Multimode Microplate Reader) after 10 minutes incubation. Dose-response curves were generated and the IC50 value was extrapolated by using the E-WorkBook Suite (ID Business Solutions Ltd., Guildford, UK). The IC50 was defined as the compound concentration at which HBsAg secretion was reduced by 50% compared to the no drug control.
The compounds according to formula I were tested for their capacity to inhibit HBsAg as described herein.

The subject of a further experiment is HBV DNA. Briefly: HBV DNA assay (real-time qPCR of extracellular HBV DNA, HepG2.2.15 cells). The experiment is classed as cell-based. The following applies: Hepatitis B virus, 144 h, extracellular HBV DNA in supernatant, six days after treatment, read-out: IC50, anti HBV DNA production activity. Here is the method:
as §1
The assay employs real-time qPCR (TaqMan) to directly measure extracellular HBV DNA copy number in the cell supernatant. HepG2.2.15 cells were plated in 96-well microtiter plates before treatment with complete medium (DMEM, Glutamax, 10% FBS, 1% Penicillin/Streptomycin, 250 μg/mL Genetycin, final DMSO concentration is 1%). Only the interior wells were utilized to reduce “edge effects” observed during cell culture, the exterior wells were filled with complete medium to help minimize sample evaporation. […]
Background: Real-time PCR tracks product formation cycle by cycle.

Structures are written as SMILES. pIC50: −log10 of the molar value.

Take `COc1cc(F)c2c(c1)CN(c1cnc(-c3ncccn3)cn1)CC2` [Example 8, 5-Fluoro-7-methoxy-2-(5-pyrimidin-2-ylpyrazin-2-yl)-3,4-dihydro-1H-isoquinoline]: the pIC50 (commonly the IC50 on a negative log10 scale, so that one unit is a factor of ten) in the experiment on HBsAg was 6.35; in the experiment with HBV DNA it was 6.53.
